Results published in US20030133905A1, “Composition for treating contact lenses in the eye” (priority 2001, published 2003).

What follows are molecules tested against T1, hen egg lysozyme (Gallus gallus, UniProt P00698) (assay: Stabilization of lysozyme against heat denaturation, read out as lysis of M. luteus suspension (optical density at 450 nm)). Settings: lysozyme + heat (80° C., 1 hour); saline with 20 mM buffering agent, 1 mg/ml lysozyme; 0 min.
T1 construct: 1 mg/ml of hen egg lysozyme; from tissue; host or cells: hen egg
Format: biochemical
Description: Each solution included saline and 20 mM of buffering agent as identified in Table 1 below. To each test solution was added 1 mg/ml of hen egg lysozyme as well as a phosphate buffered saline (PBS) control. The test solutions were mixed slowly with a stir bar until the lysozyme was incorporated into the solutions. Five ml of each lysozyme-containing test solution was retained as the unheated control. The remaining 5 ml of each lysozyme-containing test solution were placed in glass lens vials, capped with silicone stoppers and incubated in a shaking water bath at 80° C., 40 revolutions per minute (rpm) for 1 hour. These heating conditions are sufficient to denature the lysozyme, absent a stabilization effect provided by the buffering agents. The vials were allowed to come to ambient temperature before testing. A 0.00025g/ml suspension of M. luteus was prepared from lyophilized cells in PBS. The suspension was continually mixed on a stir plate during the testing period to prevent the suspension from settling. For each set of test solutions, the following were tested (sample): a heated lysozyme-containing test solution (“lysozyme+heat”); an unheated lysozyme-containing test solution (“lysozyme/no heat”); and a test solution without lysozyme (“no lysozyme”). One ml of each sample was placed into a glass test tube to which 9 ml of M. luteus suspension was added and vortexed. A 1-ml sub-sample was placed into a disposable cuvette and evaluated on a UV-vis spectrophotometer at 450 nm. This procedure was performed for each sample at 0, 5 and 10 minutes. Each of the solutions was evaluated in triplicate. Each of the three optical density measurements from the triplicate samples was averaged. […] As shown by the test data set forth below in the Table 3, the lens drop solutions containing tromethamine were very effective at stabilizing the protein against denaturation.

T1 sequence (P00698 19-147): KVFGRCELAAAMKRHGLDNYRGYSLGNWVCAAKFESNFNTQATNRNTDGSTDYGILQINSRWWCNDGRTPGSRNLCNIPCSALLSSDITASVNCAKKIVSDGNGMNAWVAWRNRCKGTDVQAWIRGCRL

Row | Molecule | optical density at 450 nm, Time 0 Min
1 | NC(CO)(CO)CO [Tris, 2-amino-2-hydroxymethyl-1,3-propanediol] | 0.810
2 | Borate | 0.872
3 | O=C(O)CC(O)(CC(=O)O)C(=O)O [Citrate] | 0.877
4 | Phosphate | 0.861

Same assay, conditions: lysozyme + heat (80° C., 1 hour); saline with 20 mM buffering agent, 1 mg/ml lysozyme; 5 min

Row | Molecule | optical density at 450 nm, Time 5 Min
5 | NC(CO)(CO)CO [Tris, 2-amino-2-hydroxymethyl-1,3-propanediol] | 0.154
6 | Borate | 0.681
7 | O=C(O)CC(O)(CC(=O)O)C(=O)O [Citrate] | 0.851
8 | Phosphate | 0.858

Same assay, conditions: lysozyme + heat (80° C., 1 hour); saline with 20 mM buffering agent, 1 mg/ml lysozyme; 10 min

Row | Molecule | optical density at 450 nm, Time 10 Min
9 | NC(CO)(CO)CO [Tris, 2-amino-2-hydroxymethyl-1,3-propanediol] | 0.117
10 | Borate | 0.390
11 | O=C(O)CC(O)(CC(=O)O)C(=O)O [Citrate] | 0.785
12 | Phosphate | 0.852

Same assay, conditions: lysozyme/no heat; saline with 20 mM buffering agent, 1 mg/ml lysozyme; M. luteus suspension; 0 min

Row | Molecule | optical density at 450 nm, Time 0 Min
13 | NC(CO)(CO)CO [Tris, 2-amino-2-hydroxymethyl-1,3-propanediol] | 0.654
14 | Borate | 0.619
15 | O=C(O)CC(O)(CC(=O)O)C(=O)O [Citrate] | 0.654
16 | Phosphate | 0.634

Same assay, conditions: lysozyme/no heat; saline with 20 mM buffering agent, 1 mg/ml lysozyme; M. luteus suspension; 5 min

Row | Molecule | optical density at 450 nm, Time 5 Min
17 | NC(CO)(CO)CO [Tris, 2-amino-2-hydroxymethyl-1,3-propanediol] | 0.048
18 | Borate | 0.053
19 | O=C(O)CC(O)(CC(=O)O)C(=O)O [Citrate] | 0.049
20 | Phosphate | 0.052

Same assay, conditions: lysozyme/no heat; saline with 20 mM buffering agent, 1 mg/ml lysozyme; M. luteus suspension; 10 min

Row | Molecule | optical density at 450 nm, Time 10 Min
21 | NC(CO)(CO)CO [Tris, 2-amino-2-hydroxymethyl-1,3-propanediol] | 0.028
22 | Borate | 0.034
23 | O=C(O)CC(O)(CC(=O)O)C(=O)O [Citrate] | 0.030
24 | Phosphate | 0.029

Same assay, conditions: no lysozyme; saline with 20 mM buffering agent; 0 min

Row | Molecule | optical density at 450 nm, Time 0 Min
25 | NC(CO)(CO)CO [Tris, 2-amino-2-hydroxymethyl-1,3-propanediol] | 0.859
26 | Borate | 0.853
27 | O=C(O)CC(O)(CC(=O)O)C(=O)O [Citrate] | 0.857
28 | Phosphate | 0.856

Same assay, conditions: no lysozyme; saline with 20 mM buffering agent; 5 min

Row | Molecule | optical density at 450 nm, Time 5 Min
29 | NC(CO)(CO)CO [Tris, 2-amino-2-hydroxymethyl-1,3-propanediol] | 0.854
30 | Borate | 0.853
31 | O=C(O)CC(O)(CC(=O)O)C(=O)O [Citrate] | 0.850
32 | Phosphate | 0.852

Same assay, conditions: no lysozyme; saline with 20 mM buffering agent; 10 min

Row | Molecule | optical density at 450 nm, Time 10 Min
33 | NC(CO)(CO)CO [Tris, 2-amino-2-hydroxymethyl-1,3-propanediol] | 0.854
34 | Borate | 0.854
35 | O=C(O)CC(O)(CC(=O)O)C(=O)O [Citrate] | 0.850
36 | Phosphate | 0.854
